{"source": "patent US5532229A", "about": "“Topical administration of vitamin D to mammals” (priority 1994, dated 1996)", "key": {"[1]": {"assay": "Experiment 3: vitamin D-binding capacity of serum (specific uptake of [3H]-25(OH)D3)", "type": "in vivo, rat", "details": "6 weeks", "procedure": "Male, Wistar rats were obtained at 120-130 g, and placed on a 0.01% calcium, 0.7% phosphate diet that was vitamin D deficient (Teklad Test Diets, Madison, WI) this was for one week to help deplete vitamin D stores. For the next three weeks the rats were fed the vitamin D-deficient diet, but with normal, 0.5%, calcium. Starting with these 3 weeks, the rats were divided into four vitamin D3 -treatment groups, initially, nine rats per group: group a) supplemented once weekly with 0.6 μg vitamin D3 (average dose, 0.08 μg/day); group b) supplemented once every second day with vitamin D3 to provide 2 nmol/day, i.e., each dose was 4 nmol of vitamin D3; group c) supplemented once every second day with vitamin D3 to provide 8 μg/day. The preceding groups all received the vitamin D3 through an infant-feeding tube inserted through the mouth into the stomach. One group, d), received its vitamin D3 in the ethanol applied onto a shaved 2 cm×2 cm patch of skin on the back, this was done every second day to provide vitamin D3 at 8 μg/day. The volume of each dose of vitamin D3 given was adjusted so that the stated doses are per 250 g body weight. Over a second 3-week period while maintaining the described vitamin D3 dosing regimens, diet calcium content was changed weekly and blood sampling was started (that is, changes in calcium and sampling was from weeks 4 to 6, inclusive, of receiving the appropriate vitamin D3 supplement). Diet calcium was first dropped to 0.01% then raised to 1.5% and finally dropped again to 0.01%. For each week of dietary calcium manipulation, blood was obtained at day zero (the day of but just prior to the change in calcium), and days 1, 3, and 7 after the change. During the first week, 0.5 mL of blood was taken on the first two of these days and anticoagulated with heparin, the cells were isolated and resuspended in normal rat plasma and reinjected into the femoral vein. […] For the subsequent samplings, only 0.2-0.3 mL of blood was taken by bleeding from the tail into precalibrated microcentrifuge tubes. […]\n(§1) Biochemical measurements. 1,25(OH)2 D3 in serum was measured by calf-thymus receptor-binding assay after initial purification of 1,25(OH)2 D3 with C18-OH cartridges (5). For the serum volumes that were minimal, serum was measured out in 50 μL increments, and the final result was adjusted for the volume of sample analyzed. […] The material eluting as 1,25(OH)2 D3 was evaporated and redissolved in acetonitrile: water for further purification with C18-OH cartridges and quantitation by thymus receptor assay, as described for serum. Renal 24-hydroxylase was measured by incubating mitochondria with [^3 H]-25(OH)D3 as substrate (Vieth and Fraser, J Biol Chem. 254:12455-12460;1979). […]"}, "1α-hydroxylase": {"system": "1α-hydroxylase", "assay": "Experiment 3: 1-hydroxylase in renal mitochondria", "type": "in vivo, rat", "details": "for Renal mitochondria 1a-hydroxylase: 6 weeks", "procedure": "(§2) Male, Wistar rats were obtained at 120-130 g, and placed on a 0.01% calcium, 0.7% phosphate diet that was vitamin D deficient (Teklad Test Diets, Madison, WI) this was for one week to help deplete vitamin D stores. For the next three weeks the rats were fed the vitamin D-deficient diet, but with normal, 0.5%, calcium. Starting with these 3 weeks, the rats were divided into four vitamin D3 -treatment groups, initially, nine rats per group: group a) supplemented once weekly with 0.6 μg vitamin D3 (average dose, 0.08 μg/day); group b) supplemented once every second day with vitamin D3 to provide 2 nmol/day, i.e., each dose was 4 nmol of vitamin D3; group c) supplemented once every second day with vitamin D3 to provide 8 μg/day. The preceding groups all received the vitamin D3 through an infant-feeding tube inserted through the mouth into the stomach. One group, d), received its vitamin D3 in the ethanol applied onto a shaved 2 cm×2 cm patch of skin on the back, this was done every second day to provide vitamin D3 at 8 μg/day. The volume of each dose of vitamin D3 given was adjusted so that the stated doses are per 250 g body weight. Over a second 3-week period while maintaining the described vitamin D3 dosing regimens, diet calcium content was changed weekly and blood sampling was started (that is, changes in calcium and sampling was from weeks 4 to 6, inclusive, of receiving the appropriate vitamin D3 supplement). Diet calcium was first dropped to 0.01% then raised to 1.5% and finally dropped again to 0.01%. For each week of dietary calcium manipulation, blood was obtained at day zero (the day of but just prior to the change in calcium), and days 1, 3, and 7 after the change. During the first week, 0.5 mL of blood was taken on the first two of these days and anticoagulated with heparin, the cells were isolated and resuspended in normal rat plasma and reinjected into the femoral vein. […] For the subsequent samplings, only 0.2-0.3 mL of blood was taken by bleeding from the tail into precalibrated microcentrifuge tubes. In this way, the bleeds prior to sacrifice removed a net total of less than 2 mL of blood, that is, less than or equal to 10% of the blood volume. Samples of daytime urine was collected into microfuge tubes that were fastened to the cones of metabolic collection funnels designed to hang under the wire cages. The cages and cones were rinsed with 0.1 mol/L hydrochloric acid prior to each collection. To eliminate contamination of the urine with diet, stool or water, the rats were placed into these separate cages only during the urine-collection period, until about 1 mL urine was present in the microfuge tube, this was typically within 5 min to one hour.\n(§3) Biochemical measurements. 1,25(OH)2 D3 in serum was measured by calf-thymus receptor-binding assay after initial purification of 1,25(OH)2 D3 with C18-OH cartridges (5). For the serum volumes that were minimal, serum was measured out in 50 μL increments, and the final result was adjusted for the volume of sample analyzed. To measure 1α-hydroxylase in renal mitochondria, the incubation was as described previously, except the substrate was 20 μmol/L nonradioactive 25(OH)D3. The assay was stopped by addition of 2.5 mL methanol. To monitor recovery of 1,25 (OH)2 D3, 2000 cpm of [^3 H]--1,25(OH)2 D3 were added in 50 μL ethanol prior to further extraction with two additions of 1.25 mL methylene chloride. The methylene chloride layer was taken and evaporated to dryness, redissolved in hexane, isopropanol, methanol (90:9: 1) for purification by HPLC, Zorbax-Sil column. The material eluting as 1,25(OH)2 D3 was evaporated and redissolved in acetonitrile: water for further purification with C18-OH cartridges and quantitation by thymus receptor assay, as described for serum. Renal 24-hydroxylase was measured by incubating mitochondria with [^3 H]-25(OH)D3 as substrate (Vieth and Fraser, J Biol Chem. 254:12455-12460;1979). […]"}, "24-hydroxylase": {"system": "24-hydroxylase", "assay": "Experiment 3: 24-hydroxylase in renal mitochondria", "type": "in vivo, rat", "details": "for Renal mitochondria 24-hydroxylase: 6 weeks", "procedure": "as §2, §3"}, "[2]": {"assay": "Experiment 3: serum 1,25(OH)2 D3 during changes in dietary calcium", "type": "in vivo, Male Wistar rats", "excerpt": "Efficacy in the long-term: ability of oral and dermal vitamin D3 delivery to influence serum 1,25(OH)2 D3 levels in response to changes in dietary calcium.\nMale, Wistar rats were obtained at 120-130 g, and placed on a 0.01% calcium, 0.7% phosphate diet that was vitamin D deficient (Teklad Test Diets, Madison, WI) this was for one week to help deplete vitamin D stores. For the next three weeks the rats were fed the vitamin D-deficient diet, but with normal, 0.5%, calcium. […]\nas §1, with “serum.” for “serum. Renal 24-hydroxylase was measured by incubating mitochondria with [^3 H]-25(OH)D3 as substrate (Vieth and Fraser, J Biol Chem. 254:12455-12460;1979).”"}, "[3]": {"details": "14 days; cited from earlier work"}, "[4]": {"details": "generated by ultraviolet exposure, bound to DBP, experimental subjects; cited from earlier work"}, "[5]": {"details": "cited from earlier work"}, "[6]": {"details": "8 μg/day, gastric and dermal, vs groups with less vitamin D3"}}, "note": "“Also recorded” adds a separate entry of the source."}
{"smiles": "C=C1CC[C@H](O)C/C1=C/C=C1\\CCC[C@]2(C)[C@@H]([C@H](C)CCCC(C)C)CC[C@@H]12", "note": "[vitamin D3]", "values": [{"measurement": "Binding Capacity for 25(OH)D3", "setting": "[1]; 0.08 μg/day diet", "result": 7.1, "unit": "µmol/L"}, {"measurement": "Binding Capacity for 25(OH)D3", "setting": "[1]; 0.8 μg/day G1 (gastric)", "result": 6.93, "unit": "µmol/L"}, {"measurement": "Binding Capacity for 25(OH)D3", "setting": "[1]; 8 μg/day G1 (gastric)", "result": 7.13, "unit": "µmol/L"}, {"measurement": "Binding Capacity for 25(OH)D3", "setting": "[1]; 8 μg/day dermal", "result": 7.96, "unit": "µmol/L"}, {"measurement": "difference between the two routes in activities of renal enzymes (1-hydroxylase)", "setting": "1α-hydroxylase; 20 nmol/250 g/day", "result": "no significant difference between the two routes"}, {"measurement": "Renal mitochondria 1a-hydroxylase", "setting": "1α-hydroxylase; 0.08 μg/day diet", "result": 1052, "unit": "fmol/mg/mi"}, {"measurement": "Renal mitochondria 1a-hydroxylase", "setting": "1α-hydroxylase; 0.8 μg/day G1 (gastric)", "result": 993, "unit": "fmol/mg/mi"}, {"measurement": "Renal mitochondria 1a-hydroxylase", "setting": "1α-hydroxylase; 8 μg/day G1 (gastric)", "result": 539, "unit": "fmol/mg/mi"}, {"measurement": "Renal mitochondria 1a-hydroxylase", "setting": "1α-hydroxylase; 8 μg/day dermal", "result": 630, "unit": "fmol/mg/mi"}, {"measurement": "1-hydroxylase in kidney", "setting": "1α-hydroxylase; [6]", "result": "suppressed 1-hydroxylase in kidney"}, {"measurement": "difference between the two routes in activities of renal enzymes (24-hydroxylase)", "setting": "24-hydroxylase; 20 nmol/250 g/day", "result": "no significant difference between the two routes"}, {"measurement": "Renal mitochondria 24-hydroxylase", "setting": "24-hydroxylase; 0.08 μg/day diet", "result": 1.34, "unit": "pmol/mg/mi"}, {"measurement": "Renal mitochondria 24-hydroxylase", "setting": "24-hydroxylase; 0.8 μg/day G1 (gastric)", "result": 3.67, "unit": "pmol/mg/mi"}, {"measurement": "Renal mitochondria 24-hydroxylase", "setting": "24-hydroxylase; 8 μg/day G1 (gastric)", "result": 8.88, "unit": "pmol/mg/mi"}, {"measurement": "Renal mitochondria 24-hydroxylase", "setting": "24-hydroxylase; 8 μg/day dermal", "result": 6.26, "unit": "pmol/mg/mi"}, {"measurement": "24-hydroxylase in kidney", "setting": "24-hydroxylase; [6]", "result": "increased 24-hydroxylase in kidney"}, {"measurement": "difference between the two routes in suppression of serum 1,25(OH)2 D3 levels", "setting": "[2]; 20 nmol/250 g/day", "result": "no significant difference between the two routes"}, {"measurement": "serum 1,25(OH)2 D3, effect of supplementation", "setting": "[2]; 8 μg/day, gastric or dermal, all levels of calcium intake", "result": "lower serum 1,25(OH)2 D3 concentrations; also recorded: lower serum 1,25(OH)2 D3 at every level of calcium intake"}, {"measurement": "fatal oral dose", "setting": "[3]", "result": 2600, "unit": "µg/day"}, {"measurement": "persistence in circulation", "setting": "[4]", "result": "circulate unchanged for a prolonged time"}, {"measurement": "solubility in water", "setting": "[5]", "result": "not soluble in water"}]}
